Experimental findings from patent US8829014B2, “Thiazole and thiophene analogues, and their use in treating autoimmune diseases and cancers” (Board of Supervisors of Louisiana State University and …, priority 2006, dated 2014) are described below.

The test system of this assay is carageenan-induced edema. As to the kind of experiment: Carrageenan-induced rat paw edema test (anti-inflammatory activity). Particulars: for inhibition in vivo at 50 mg/kg: Rattus norvegicus, po, 3 h. The assay is classed as in vivo, Sprague-Dawley rats. On the procedure:
Sprague-Dawley rats, male and female, 150-250 g will be used in an edema test. Rats will be deprived of food but not water for 18 hours prior to the experiment. The test compounds will be administered with a blunt-tipped needle orally, 50 mg/kg, as a suspension in 0.1% sodium CMC (carboxymethylcellulose) vehicle. Alternatively, the test compounds will be injected intravenously, subcutaneously, or intraperitoneally. One hour later, 0.1 ml of a 1% carrageenan solution in saline will be injected in the sub-plantar region of the right hind paw of each rat. […] The reading will be repeated 3 hours later. The displacement readings give a measure of carageenan-induced edema. Any reduction in carageenan-induced edema with a test compound, as compared to saline control, is a measure of the anti-inflammatory activity of the test compound. The percentage protection at 50-mg/kg doses was calculated according to the following formula: % Protection=[(Control−Test)/Control]×100%.
Following treatment, the media from the VSMC and HUVEC incubations were removed, and the amount of lactate dehydrogenase (LDH) released into the medium was determined with a commercial kit and expressed as a % increase over vehicle-treated cells. HPT toxicity was determined by the ethidium homodimer (EthHD) uptake assay. […] The lead compounds were also tested in two pairs of cell lines from the skin or prostate, one tumorigenic and one non-tumorigenic, to test for differing toxicity or heightened sensitivity in the tumorigenic lines. The cells were treated for 48 h with vehicle (0.1% DMSO) or 10 μM of each drug candidate, and the viability of the cells was determined by the MTT assay, expressed as a % decrease in viability compared to vehicle-treated cells. The in vivo inflammation model measured the % inhibition of rat paw edema induced by carageenan injection.

The mark [1] stands for this setting: rat paw edema, 50 mg/kg, reading 3 hours after carrageenan, [(Control−Test)/Control]×100%.
Where [2] appears, read: rat paw edema, 50 mg/kg, reading 3 hours after carrageenan, [(Control−Test)/Control]×100%, read-out: % Protection P.

Read-outs that look alike come from different tables or passages of the source.

With “4-[3-Phenyl-5-(4,5,6-trimethoxy-pyridine-2-yl)-thiophen-2-yl]-morpholine [Example 39]”, under setting [1], the “% Protection P” value was 19.65%.

On to `O=C(c1ccccc1)c1cc(-c2ccccc2)c(N2CCOCC2)s1` [Example 42, (5-Morpholin-4-yl-4-phenyl-thiophen-2-yl)-phenyl-methanone], for which, under setting [2], the inhibition in vivo at 50 mg/kg turned out to be 53.5%.

As for `COc1c(C)cnc(-c2sc(Nc3ccccc3)nc2N)c1C` [Example 330, 5-(4-Methoxy-3,5-dimethyl-pyridin-2-yl)-N2-phenyl-thiazole-2,4-diamine], the inhibition in vivo at 50 mg/kg under setting [2] was found to be 24%.

For the compound `CS(=O)(=O)c1ccc(-c2cc(C(=O)c3ccc(Cl)cc3Cl)sc2N2CCOCC2)cc1` [Example 58, (2,4-Dichloro-phenyl)-[4-(4-methanesulfonyl-phenyl)-5-morpholin-4-yl-thiophen-2-yl]-methanone], the inhibition in vivo at 50 mg/kg under setting [2] was 50%.

Regarding `Cc1ccccc1-n1c(-c2cc(-c3ccccc3)c(N3CCOCC3)s2)nc2ccccc2c1=O` [Example 278, 2-(5-Morpholin-4-yl-4-phenyl-thiophene-2-yl)-3-0-tolyl-3H-quinazolin-4-one], under setting [1], the “% Protection P” value is recorded as 37%.

For `O=C(c1ccncc1)c1cc(-c2cccnc2)c(N2CCOCC2)s1` [Example 99, (5-Morpholin-4-yl-4-pyridin-3-yl-thiophen-2-yl)-pyridin-4-yl-methanone], under setting [2], the inhibition in vivo at 50 mg/kg turned out to be 26%.

As to `COc1ccc(Nc2nc(-c3ccccc3)c(C(=O)c3sc(Nc4ccc(OC)cc4)nc3-c3ccccc3)s2)cc1` [Example 393, Bis-[2-(4-methoxy-phenylamino)-4-phenyl-thiazol-5-yl]-methanone], the inhibition in vivo at 50 mg/kg under setting [2] amounted to 32%.

With `CCOC(=O)Nc1nc(C)c(-c2nc3ccccc3c(=O)n2-c2ccc(C(C)=O)cc2)s1` [Example 259, (4-Methyl-5-(4-oxo-3-(4-acetyl-phenyl)-3,4-dihydro-quinazolin-2-yl)-thiazol-2-yl)-carbamic acid ethyl ester], the inhibition in vivo at 50 mg/kg (carrageenan-induced rat paw edema, defined in Example 397, read-out: % Protection) stood at 69.7%.

Regarding `O=C(c1ccc(Cl)cc1)c1cc(-c2ccncc2)c(N2CCOCC2)s1` [Example 105, (4-Chloro-phenyl)-(5-morpholin-4-yl-4-pyridin-4-yl-thiophen-2-yl)-methanone], under setting [2], the inhibition in vivo at 50 mg/kg was 47.2%.

For the compound `COc1ccc(Nc2nc(NC(=O)Nc3ccc(F)cc3)c(C(=O)c3ccc(Cl)cc3)s2)cc1` [Example 363, 1-[5-(4-Chloro-benzoyl)-2-(4-methoxy-phenylamino)-thiazol-4-yl]-3-(4-fluoro-phenyl)-urea], the inhibition in vivo at 50 mg/kg under setting [2] was 54.5%.

In the case of `Nc1nc(Nc2ccccc2)sc1C(=O)c1cccnc1` [Example 327, (4-Amino-2-phenylamino-thiazol-5-yl)-pyridin-3-yl-methanone], the inhibition in vivo at 50 mg/kg under setting [2] came out at 32%.

In the case of `O=C(c1cccnc1)c1cc(-c2ccccc2)c(N2CCOCC2)s1` [Example 50, (5-Morpholin-4-yl-4-phenyl-thiophene-2-yl)-pyridine-3-yl-methanone], the inhibition in vivo at 50 mg/kg under setting [2] was found to be 6.9%.

For `O=C(c1ccc(Cl)cc1)c1cc(-c2ccccc2)c(N2CCOCC2)s1` [Example 45, (4-Chloro-phenyl)-(5-morpholin-4-yl-4-phenyl-thiophene-2-yl)-methanone], the inhibition in vivo at 50 mg/kg under setting [2] is 53.5%.

Take `CC(=O)Nc1ccc(C(=O)c2cc(-c3ccc(S(C)(=O)=O)cc3)c(N3CCOCC3)s2)cc1` [Example 61, N-{4-[4-(4-Methansulfonyl-phenyl)-5-morpholin-4-yl-thiophene-2carbonyl]-phenyl}-acetamide]: the inhibition in vivo at 50 mg/kg under setting [2] stood at 25%.

As for `Cc1c(OCC(F)(F)F)ccnc1-c1sc(Nc2ccc(Cl)cc2)nc1N` [Example 342, (N2-(4-Chloro-phenyl)-5-[3-Methyl-4-(2,2,2-trifluoro-ethoxy)-pyridin-2-yl]-thiazole-2,4-diamine)], the inhibition in vivo at 50 mg/kg under setting [2] is 76%.

With `O=C(Nc1nc(-c2ccccc2)c(C(=O)c2sc(NC(=O)c3ccco3)nc2-c2ccccc2)s1)c1ccco1` [Example 129, Bis-[2-(2-Furoyl-amino)-4-phenyl-thiazole-5-yl]-methanone], the inhibition in vivo at 50 mg/kg under setting [2] worked out at 55%.

For the compound `Nc1nc(Nc2ccccc2)sc1C(=O)c1ccccn1` [Example 329, (4-Amino-2-phenylamino-thiazol-5-yl)-pyridin-2-yl-methanone], under setting [2], the inhibition in vivo at 50 mg/kg came to 54%.

“N-[4-(5-Morpholin-4-yl-4-thiophene-2-carbonyl)-phenyl]-acetamide [Example 49]”: the “% Protection P” value under setting [1] was 68.31%.

As to “[4-(4-Chloro-phenyl)-5-morpholin-4-yl-thiophen-2-yl]-(5-methoxy-4,6-dimethyl-pyridin-2-yl)-methanone [Example 76]”, the “% Protection P” value under setting [1] stood at 17%.

As for “4-{3-(4-Chloro-phenyl)-5-[5-methyl-4-(2,2,2-trifluoro-ethoxy)-pyridin-2-yl]-thiophen-2-yl}-morpholine [Example 77]”, the “% Protection P” value under setting [1] is listed as 23%.

As for `Nc1nc(Nc2ccccc2)sc1C(=O)c1ccc(Cl)cc1` [Example 323, (4-Amino-2-phenylamino-thiazol-5-yl)-(4-chloro-phenyl)-methanone], the inhibition in vivo at 50 mg/kg under setting [2] came to 43%.

On to `O=C(c1ccccc1)c1cc(-c2ccc(Cl)cc2)c(N2CCOCC2)s1` [Example 78, [4-(4-Chloro-phenyl)-5-morpholin-4-yl-thiophen-2-yl]-phenyl-methanone], for which, under setting [2], the inhibition in vivo at 50 mg/kg was -48.3%.

Turning to `Cc1ccccc1-n1c(-c2cc(-c3ccc(S(C)(=O)=O)cc3)c(N3CCOCC3)s2)nc2ccccc2c1=O` [Example 281, 2-[4-(4-Methanesulfonylphenyl)-5-morpholin-4-yl-thiophen-2-yl]-3-o-tolyl-3H-quinazolin-4-one], under setting [2], the inhibition in vivo at 50 mg/kg was found to be 50%.

Regarding `O=c1c2ccccc2nc(-c2cc(-c3ccc(Cl)cc3)c(N3CCOCC3)s2)n1-c1ccccc1Cl` [Example 305, 2-[4-(4-Chlorophenyl)-5-morpholin-4-yl-thiophene-2-yl]-3-(2-chlorophenyl)-3H-quinazolin-4-one], the inhibition in vivo at 50 mg/kg under setting [2] turned out to be 40%.

For `COc1c(C)cc(-c2cc(-c3cccnc3)c(N3CCOCC3)s2)nc1C` [Example 88, 4-[5-(5-Methoxy-4,6-dimethyl-pyridin-2-yl)-3-pyridin-3-yl-thiophen-2-yl]-morpholine], under setting [2], the inhibition in vivo at 50 mg/kg was -18.1%.

As to `CN1CCN(c2sc(-c3nc4ccccc4c(=O)n3-c3ccc(Cl)cc3)cc2-c2ccc(S(C)(=O)=O)cc2)CC1` [Example 318, 3-(4-Chlorophenyl)-2-[4-(4-methanesulfonyl-phenyl)-5-(4-methyl-piperazine-1-yl)-thiophen-2-yl]-3H-quinazolin-4-one], the inhibition in vivo at 50 mg/kg under setting [2] was determined as 21%.

Take `COc1ccc(Nc2nc(N)c(C(=O)c3ccc(S(C)(=O)=O)cc3)s2)cc1` [Example 347, ([4-Amino-2-(4-methoxy-phenylamino)-thiazol-5-yl]-(4-methanesulfonyl-phenyl)-methanone)]: the inhibition in vivo at 50 mg/kg under setting [2] was 30.3%.

For `CC(=O)Nc1ccc(-c2cc(C(=O)c3cc(OCC(F)(F)F)c(C)cn3)sc2N2CCOCC2)cc1` [Example 65, N(4-{5-[5-Methyl-4-(2,2,2-trifluoro-ethoxy)-pyridine-2-carbonyl]-2-morpholin-4-yl-thiophen-3-yl}-phenyl)-acetamide], the “% Protection P” value under setting [1] is on record as 30%.

Take `COc1ccc(Nc2nc(NC(=O)Nc3ccc(F)cc3)c(-c3cc(C)c(OC)c(C)n3)s2)cc1` [Example 366, 1-(4-Fluoro-phenyl)-3-[5-(5-methoxy-4,6-dimethyl-pyridin-2-yl)-2-(4-methoxy-phenylamino)-thiazol-4-yl]-urea]: under setting [2], the inhibition in vivo at 50 mg/kg is 19.1%.

Take `COc1ccc(C(=O)c2sc(Nc3ccccc3)nc2N)cc1` [Example 321, 4-Amino-(2-phenylamino-thiazol-5-yl)-(4-methoxy-phenyl)-methanone]: the “% Protection P” value (rat paw edema, 50 mg/kg, reading 3 hours after carrageenan, [(Control−Test)/Control]×100%, 50 mg/kg) stood at 12.25%.

For `COc1ccccc1Nc1nc(-c2ccccc2)c(C(=O)c2sc(Nc3ccccc3OC)nc2-c2ccccc2)s1` [Example 391, Bis-[2-(2-methoxy-phenylamino)-4-phenyl-thiazol-5-yl]-methanone], under setting [2], the inhibition in vivo at 50 mg/kg came out at 59%.

`Cc1ccc(C(=O)c2sc(Nc3ccccc3)nc2N)cc1` [Example 322, 4-Amino-(2-phenylamino-thiazol-5-yl)-p-tolyl-methanone]: the “% Protection P” value under setting [1] is 23.98%.

In the case of `COc1ccc(C(=O)c2cc(-c3cccnc3)c(N3CCOCC3)s2)cc1` [Example 92, (4-Methoxy-phenyl)-(5-morpholin-4-yl-4-pyridin-3-yl-thiophen-2-yl)methanone], the inhibition in vivo at 50 mg/kg under setting [2] was 69%.

With `Cc1ccc(-n2c(-c3cc(-c4ccccc4)c(N4CCOCC4)s3)nc3ccccc3c2=O)cc1` [Example 290, 2-(5-Morpholin-4-yl-4-phenyl-thiophene-2-yl)-3-p-tolyl-3H-quinazolin-4-one], the inhibition in vivo at 50 mg/kg under setting [2] stood at 48%.
